# From publication PMC12389355, “Physiologically Based Pharmacokinetic Modeling to Assess Perpetrator and Victim Cytochrome P450 2C Induction Risk” (Pharmaceutics, 2025)
# Assays:
# [1] = tested on: CYP3A4; conditions: cited from earlier work; for fm CYP3A4: victim drug, References of Tables 3 and 4 ([27]-[44])
# [2] = victim drug after administration with rifampicin; References of Table 4 ([27]-[43]), DIDB; cited from earlier work
# [3] = tested on: CYP2C8; set-up: method as in References column of Tables 3 and 4 ([27]-[44]); conditions: victim drug; References of Tables 3 and 4 ([27]-[44]); cited from earlier work
# [4] = tested on: CYP2C8; experiment: in vitro; conditions: both, human
# [5] = tested on: CYP2B6; set-up: method as in PMID 29802934; conditions: PHH spheroids; cited from earlier work
# [6] = tested on: CYP2C8; experiment: CYP2C8 mRNA induction in HTC model
# [7] = tested on: CYP2C8; set-up: method as in PMID 29802934; conditions: PHH spheroids; cited from earlier work
# [8] = tested on: CYP2B6; experiment: in vitro; conditions: human
# [9] = tested on: CYP2C19; experiment: in vitro; conditions: both, human
# [10] = tested on: CYP2B6; experiment: CYP2B6 mRNA induction in HTC model
# [11] = tested on: CYP2C19; set-up: method as in PMID 26658225; conditions: PHH spheroids, observed in two of the three donors; cited from earlier work
# [12] = tested on: CYP2C19; experiment: CYP2C19 mRNA induction in HTC model
# [13] = tested on: CYP2B6; conditions: cited from earlier work
# [14] = tested on: CYP2C9; conditions: cited from earlier work
# [15] = tested on: Other CYPs; conditions: victim drug; ref [35],[36]; cited from earlier work
# [16] = tested on: CYP2C19; conditions: cited from earlier work
# [17] = tested on: CYP1A2; conditions: cited from earlier work
smiles,measurement,setting,value
"CCc1ccc(CCOc2ccc(CC3SC(=O)NC3=O)cc2)nc1 (centres unmarked) [Pioglitazone, pioglitazone]",fm CYP3A4,[1],0.37
same,% AUC Reduction (Clinically Observed),[2],56.3%
same,fm CYP2C8,[3],0.56
"CCOc1cc(CC(=O)N[C@@H](CC(C)C)c2ccccc2N2CCCCC2)ccc1C(=O)O [Repaglinide, repaglinide]",fm CYP3A4,[1],0.74
same,% AUC Reduction (Clinically Observed),[2],57.5%
same,fm CYP2C8,[3],0.26
"CO[C@H]1/C=C/O[C@@]2(C)Oc3c(C)c(O)c4c(O)c(c(/C=N/N5CCN(C)CC5)c(O)c4c3C2=O)NC(=O)/C(C)=C\C=C\[C@H](C)[C@H](O)[C@@H](C)[C@@H](O)[C@@H](C)[C@H](OC(C)=O)[C@@H]1C [Rifampicin, rifampicin]",EC50 at 96 h,[4],260 to 504 nM
same,induction of CYP2B6 mRNA levels,[5],9 fold
same,EC50,[6]; Donor 2,260 nM
same,EC50,[6]; Donor 3,307 nM
same,induction of CYP2C8 mRNA levels,[7],12 fold
same,EC50 at 96 h,[8]; both,399 to 530 nM
same,EC50 at 96 h,[8],415 nM
same,EC50 at 96 h,[9],803 to 1640 nM
same,EC50,[10]; Donor 2,530 nM
same,EC50,[10]; Donor 3,399 nM
same,CYP2C19 induction,[11],8 fold
same,EC50,[12]; Donor 1,1640 nM
same,EC50,[12]; Donor 2,803 nM
same,EC50,[12]; Donor 3,1470 nM
CC(=O)C[C@@H](c1ccccc1)c1c(O)c2ccccc2oc1=O [S-warfarin],fm via CYP2B6,[13],0.12
same,fm via CYP3A4,[1],0.05
same,fm via CYP2C9,[14],0.64
"CCCCNC(=O)NS(=O)(=O)c1ccc(C)cc1 [Tolbutamide, tolbutamide]",fm Other CYPs,[15],0.15
same,% AUC Reduction (Clinically Observed),[2],63.5%
"CC(=O)CC(c1ccccc1)c1c(O)c2ccccc2oc1=O (centres unmarked) [Warfarin, warfarin]",fm CYP2C9,"[14]; victim drug, References of Tables 3 and 4 ([27]-[44])",0.64
COC(=O)[C@H](c1ccccc1Cl)N1CCc2sccc2C1 [clopidogrel],fm via CYP2B6,[13],0.06
same,fm via CYP2C19,[16],0.19
same,fm via CYP1A2,[17],0.02
